{"source": "patent US20130261130A1", "about": "“NEUROTRYPSIN INHIBITORS” (priority 2010, published 2013)", "type_in_all_cases": "biochemical", "key": {"Factor Xa": {"target": "T1, Factor Xa (Homo sapiens, UniProt P00742)", "T1 construct": "Factor Xa; purchased American diagnostic", "T1 sequence (P00742 235-488 limits assumed)": "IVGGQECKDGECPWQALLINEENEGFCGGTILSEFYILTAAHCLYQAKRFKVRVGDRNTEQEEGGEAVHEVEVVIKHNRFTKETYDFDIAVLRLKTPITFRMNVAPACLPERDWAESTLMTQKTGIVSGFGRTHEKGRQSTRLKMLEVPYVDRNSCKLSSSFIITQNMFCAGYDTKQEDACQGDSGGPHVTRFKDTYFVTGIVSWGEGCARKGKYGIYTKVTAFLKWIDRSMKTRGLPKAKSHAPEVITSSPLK", "T1 sequence (P00742 41-179 partner limits assumed)": "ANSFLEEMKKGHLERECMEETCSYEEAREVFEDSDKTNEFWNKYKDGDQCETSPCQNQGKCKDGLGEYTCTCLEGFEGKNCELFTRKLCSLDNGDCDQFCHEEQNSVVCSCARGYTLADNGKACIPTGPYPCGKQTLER", "assay": "Determination of the IC50 for various proteases: Factor Xa", "details": "Mean ± SD", "method": "(§1) A 6 mM solution of the test compound in DMSO was prepared. In a V-bottom micro plate the 6 mM compound solution was diluted 6 times in DMSO to obtain a concentration row with the following concentrations: 6 mM, 1.8 mM, 540 μM, 162 μM, 48.8 μM, 14.4 μM, and 4 μM. From this DMSO master plate 1:20 dilutions in 10 mM MOPS pH 8.3 were prepared to obtain solutions of 300, 90, 27, 8.1, 2.44, 0.72 and 0.22 μM in MOPS buffer and 5% DMSO.\n(§2) 100 μl of this solution were pipetted into a flat bottom 96 well microplate and placed into a Tecan infinite 200 plate reader. Before measurement, 50 μl of protease solution and, subsequently 50 μl substrate solution were added by the machine. The liberation of free para nitroanilide was detected at 405 nm. The protease solution was freshly prepared by diluting to the desired concentration from a stock solution in 60 mM MOPS; 600 mM NaCl; 20 mM CaCl2; 10% DMSO; 0.4% PEG 6000 pH 8.3. The substrate solution was prepared by dissolving the solid substrate in an adequate amount of water to get the desired concentrations. The used protease and substrate solutions are given below:\n(§3) All enzymes except trypsin were from human origin (American diagnostic). Trypsin is hog trypsin (Sigma Aldrich). Substrates were purchased from Chromogenix. […]"}, "Plasmin": {"target": "T2, Plasmin (Homo sapiens, UniProt P00747)", "T2 construct": "Plasmin; purchased American diagnostic", "T2 sequence (P00747 581-810 limits assumed)": "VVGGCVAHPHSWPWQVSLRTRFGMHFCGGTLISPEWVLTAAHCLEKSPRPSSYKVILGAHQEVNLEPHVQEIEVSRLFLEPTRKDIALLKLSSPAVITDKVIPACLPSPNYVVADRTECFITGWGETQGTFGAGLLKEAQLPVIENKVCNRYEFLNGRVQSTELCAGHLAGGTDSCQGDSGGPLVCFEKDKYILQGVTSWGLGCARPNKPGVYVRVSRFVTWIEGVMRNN", "T2 sequence (P00747 97-580 partner limits assumed)": "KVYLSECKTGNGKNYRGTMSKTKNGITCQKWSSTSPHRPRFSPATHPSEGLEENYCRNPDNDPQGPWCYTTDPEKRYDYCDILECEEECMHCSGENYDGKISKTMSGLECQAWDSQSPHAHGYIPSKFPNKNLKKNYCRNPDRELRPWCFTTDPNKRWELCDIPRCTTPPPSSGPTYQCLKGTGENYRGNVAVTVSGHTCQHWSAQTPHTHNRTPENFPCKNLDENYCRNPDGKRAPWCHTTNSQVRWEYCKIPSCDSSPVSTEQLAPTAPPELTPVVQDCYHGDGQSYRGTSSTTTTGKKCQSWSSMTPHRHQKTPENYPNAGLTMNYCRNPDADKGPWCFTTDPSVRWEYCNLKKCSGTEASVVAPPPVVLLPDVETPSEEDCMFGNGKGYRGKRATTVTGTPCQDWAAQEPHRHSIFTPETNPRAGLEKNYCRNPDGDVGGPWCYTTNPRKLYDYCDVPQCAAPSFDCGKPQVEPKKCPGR", "assay": "Determination of the IC50 for various proteases: plasmin", "details": "Mean ± SD", "method": "as §1, §2, §3"}, "Trypsin (hog trypsin)": {"target": "T3, Trypsin (hog trypsin) (Sus scrofa, UniProt P00761)", "T3 construct": "Trypsin is hog trypsin (Sigma Aldrich); purchased Sigma Aldrich", "T3 sequence (P00761 9-231)": "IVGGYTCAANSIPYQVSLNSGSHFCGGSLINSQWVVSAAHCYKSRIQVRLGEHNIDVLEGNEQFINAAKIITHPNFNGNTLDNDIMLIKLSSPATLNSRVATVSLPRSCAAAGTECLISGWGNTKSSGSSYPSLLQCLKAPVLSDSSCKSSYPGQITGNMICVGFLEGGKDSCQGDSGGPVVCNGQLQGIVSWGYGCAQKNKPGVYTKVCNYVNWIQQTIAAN", "assay": "Determination of the IC50 for various proteases: trypsin", "details": "Mean ± SD", "method": "as §1, §2, §3"}, "Thrombin": {"target": "T4, Thrombin (Homo sapiens, UniProt P00734)", "T4 construct": "Thrombin; purchased American diagnostic", "assay": "Determination of the IC50 for various proteases: thrombin", "details": "Mean ± SD", "method": "as §1, §2, §3"}, "tPA": {"target": "T5, tPA (Homo sapiens, UniProt P00750)", "T5 construct": "purchased American diagnostic", "T5 sequence (P00750 36-562)": "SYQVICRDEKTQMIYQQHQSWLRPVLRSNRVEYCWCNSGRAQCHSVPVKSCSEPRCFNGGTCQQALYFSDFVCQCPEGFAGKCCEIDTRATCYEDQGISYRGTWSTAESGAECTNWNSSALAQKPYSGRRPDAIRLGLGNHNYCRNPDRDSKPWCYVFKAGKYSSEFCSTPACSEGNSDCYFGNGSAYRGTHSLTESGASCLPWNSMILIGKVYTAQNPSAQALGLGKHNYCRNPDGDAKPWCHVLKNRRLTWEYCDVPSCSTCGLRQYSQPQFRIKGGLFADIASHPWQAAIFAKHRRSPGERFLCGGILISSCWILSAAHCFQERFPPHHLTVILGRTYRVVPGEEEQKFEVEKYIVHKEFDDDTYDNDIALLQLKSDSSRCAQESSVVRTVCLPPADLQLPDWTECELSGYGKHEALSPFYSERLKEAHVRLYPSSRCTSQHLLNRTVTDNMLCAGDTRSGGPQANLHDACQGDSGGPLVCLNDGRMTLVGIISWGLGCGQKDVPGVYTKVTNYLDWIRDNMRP", "assay": "Determination of the IC50 for various proteases: tPA", "details": "Mean ± SD", "method": "as §1, §2, §3"}, "Kallikrein": {"target": "Kallikrein (Homo sapiens, UniProt P03952)", "sequence (P03952 whole entry)": "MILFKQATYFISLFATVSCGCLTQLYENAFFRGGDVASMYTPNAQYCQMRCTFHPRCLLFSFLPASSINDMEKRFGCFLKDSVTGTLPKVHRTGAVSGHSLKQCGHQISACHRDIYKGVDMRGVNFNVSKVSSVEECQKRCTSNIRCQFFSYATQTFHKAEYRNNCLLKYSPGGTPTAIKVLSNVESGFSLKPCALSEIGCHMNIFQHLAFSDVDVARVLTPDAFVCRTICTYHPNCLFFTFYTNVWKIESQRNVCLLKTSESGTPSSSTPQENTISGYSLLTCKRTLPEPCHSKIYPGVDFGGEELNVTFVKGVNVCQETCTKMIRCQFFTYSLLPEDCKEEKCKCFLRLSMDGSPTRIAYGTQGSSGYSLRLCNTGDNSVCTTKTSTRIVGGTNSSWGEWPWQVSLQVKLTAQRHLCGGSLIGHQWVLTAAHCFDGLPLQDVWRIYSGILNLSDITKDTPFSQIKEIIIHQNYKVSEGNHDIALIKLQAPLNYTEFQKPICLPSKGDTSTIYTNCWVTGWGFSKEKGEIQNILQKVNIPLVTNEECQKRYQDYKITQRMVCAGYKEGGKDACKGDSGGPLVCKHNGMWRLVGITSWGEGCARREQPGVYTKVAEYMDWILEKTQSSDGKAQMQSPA", "assay": "Determination of the IC50 for various proteases: kallikrein", "details": "Mean ± SD", "method": "as §1, §2, §3"}, "human neurotrypsin": {"target": "T6, human neurotrypsin (Homo sapiens, UniProt P56730)", "T6 sequence (P56730 21-875)": "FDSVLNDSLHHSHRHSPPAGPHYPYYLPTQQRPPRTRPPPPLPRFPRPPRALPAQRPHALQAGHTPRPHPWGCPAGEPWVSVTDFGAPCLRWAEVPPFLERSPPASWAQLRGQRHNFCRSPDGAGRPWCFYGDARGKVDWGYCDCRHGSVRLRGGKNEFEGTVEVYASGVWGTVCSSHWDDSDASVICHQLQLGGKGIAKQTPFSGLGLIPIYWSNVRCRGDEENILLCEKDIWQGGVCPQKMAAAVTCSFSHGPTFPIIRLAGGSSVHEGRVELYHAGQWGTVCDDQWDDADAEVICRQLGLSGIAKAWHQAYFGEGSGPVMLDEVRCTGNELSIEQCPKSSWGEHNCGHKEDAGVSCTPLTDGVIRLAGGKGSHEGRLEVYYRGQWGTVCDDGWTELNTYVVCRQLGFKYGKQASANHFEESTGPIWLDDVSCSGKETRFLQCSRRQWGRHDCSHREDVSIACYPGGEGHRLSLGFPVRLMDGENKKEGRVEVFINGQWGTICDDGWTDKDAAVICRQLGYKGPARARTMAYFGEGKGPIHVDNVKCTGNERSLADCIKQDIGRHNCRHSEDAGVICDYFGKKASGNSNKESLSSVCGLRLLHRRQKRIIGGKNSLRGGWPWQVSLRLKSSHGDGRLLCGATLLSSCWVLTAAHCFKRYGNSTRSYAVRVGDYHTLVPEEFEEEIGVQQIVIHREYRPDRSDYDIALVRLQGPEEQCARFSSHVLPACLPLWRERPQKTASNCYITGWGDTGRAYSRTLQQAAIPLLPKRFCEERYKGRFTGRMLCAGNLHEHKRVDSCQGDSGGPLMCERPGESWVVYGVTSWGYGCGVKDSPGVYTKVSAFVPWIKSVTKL", "assay": "Determination of IC50 for human neurotrypsin", "method": "Assessment of the potency of compounds of examples 1-311 in inhibiting the enzymatic activity of human neurotrypsin was performed according to the method described in patent application WO 2006/1103261"}, "uPA": {"target": "T7, uPA (Homo sapiens, UniProt P00749)", "T7 construct": "purchased American diagnostic", "assay": "Determination of the IC50 for various proteases: uPA", "details": "Mean ± SD", "method": "as §1, §2, §3"}}, "note": "Where two headings read alike, the source gives them in different places."}
{"compound": "O=C(Nc1ccc(Cl)cc1)c1ccc(NC(=O)c2ccc(-c3nc4cc(Cl)c(Cl)cc4[nH]3)cc2)c(C(=O)O)c1", "note": "[Example 119]", "values": [{"measurement": "IC50", "setting": "Factor Xa", "value": "39.8 ± 33.3", "unit": "µM"}, {"measurement": "IC50", "setting": "Plasmin", "value": "2.4 ± 1.6", "unit": "µM"}, {"measurement": "IC50", "setting": "Trypsin (hog trypsin)", "value": "> 150", "unit": "µM"}, {"measurement": "IC50", "setting": "Thrombin", "value": "37.7 ± 25.2", "unit": "µM"}, {"measurement": "IC50", "setting": "tPA", "value": "47.1 ± 22.4", "unit": "µM"}, {"measurement": "IC50", "setting": "Kallikrein", "value": "27.1 ± 9.2", "unit": "µM"}, {"measurement": "IC50", "setting": "human neurotrypsin; Mean ± SD, read-out: IC50 Neurotrypsin", "value": "0.51 ± 0.16", "unit": "µM"}, {"measurement": "IC50", "setting": "human neurotrypsin; human neurotrypsin, method of WO 2006/1103261, read-out: Neurotrypsin IC50", "value": 0.4, "unit": "µM"}, {"measurement": "IC50", "setting": "uPA", "value": "> 40", "unit": "µM"}]}
